Earlier results as cited in patent US10117956B2, “Radiolabeled active targeting pharmaceutical composition and the use thereof” (Institute of Nuclear Energy Research Atomic Energy Council, …, priority 2013, dated 2018).

Settings: 30 minutes after injection

SMILES: O=C[C@H](O)[C@@H](O)[C@H](O)[C@H](O)CF [6-FDG, 6-fluoro-6-deoxy-D-glucose]
- concentration in the blood: 1.11 % ID/g
